Results published in patent US6613317B1, “Volatile attractants for diabrotica species” (priority 1988, dated 2003).
Marks after values point to notes of the source that are not given here.

What was measured:
[1] = tested on: western corn rootworm (WCR) adults; assay: Sticky trap attraction in corn, estragole analogues (Example 3); assay type: in vivo, Diabrotica virgifera virgifera; conditions: 100 mg per trap, n = 4; for Mean number of WCR per sticky trap after 24 hours: August 5 (Table 10)
Method: (§1) Test chemicals were applied by capillary micropipettes to cotton dental wicks that were attached to tops of 1.0 liter cylindrical paper cartons covered with TangleTrap™, Grand Rapids, Mich. The trapping techniques used were as previously described in Example 1. Cinnamyl alcohol, 4-methoxycinnamaldehyde, cinnamyl acetate, and 4-(4′methoxyphenyl)-3-butene-2-one which are solids at ambient temperature were prepared as standard w/v solutions in acetone prior to dosing the cotton wicks. All treatments were made at a dosage of 100 mg or 100 μL of attractant per trap. Control traps had untreated wicks. Four replicates of treated and untreated traps were positioned randomly 10 meters apart on top of 1 m high posts along the edges of 25-50 ha. fields of hybrid corn (Zea mays), infested with adult NCR, SCR, and WCR beetles. Several experiments detailed in the Tables were made in a 0.4 ha plot of sweet corn (Illini X-tra Sweet).
(§2) Attraction of Diabrotica species adults of the sticky traps was measured by the mean number of beetles caught after 1 day (ca. 24 hours) exposure. The significance of the treatments was determined by analysis of variance and the individual means were separated by Duncan's multiple range test (Statistical Package for the Social Sciences, Nie, et al., 2nd. ed. McGraw-Hill, New York (1975). The data was logarithmically transformed for statistical analysis. Means and standard deviations are presented for the untransformed data. Significance levels were set at P=0.05 for all statistical analyses.

[2] = tested on: southern corn rootworm (SCR) adults; assay: as above; assay type: in vivo, Diabrotica undecimpunctata howardi; conditions: 100 mg per trap, n = 4; for Mean number of SCR per sticky trap after 24 hours: August 5 (Table 10)
Method: as §1, §2

[3] = tested on: northern corn rootworm (NCR) adults; assay: as above; assay type: in vivo, Diabrotica barberi; conditions: August 5 (Table 10); 100 mg per trap; n = 4
Method: as §1, §2

[4] = tested on: southern corn rootworm (SCR) adults; assay: Sticky trap attraction in sweet corn plots (Example 1); assay type: in vivo, Diabrotica undecimpunctata howardi; conditions: for Mean number of SCR per trap (±standard deviation): n = 4
Method: (§3) The attraction of Diabrotica species to single-component and multicomponent lures was evaluated in corn fields. The field experiments on attraction of SCR and WCR adults were conducted in 0.405-ha (1-acre) plots of “Illini Xtra Sweet” corn grown on the University of Illinois South Farms at Urbana, Ill., over a two year period. Most of the tests were conducted in August to correspond with the peak silk-feeding and oviposition periods of corn rootworm adults in central Illinois. In both years, the sweet corn plot was adjacent to a 0.405-ha trap crop of C. maxima cultivar “Blue Hubbard”, to provide high densitites of SCR and WCR adults in the corn plots (Howe, et al., Environ. Entomol., 5:745-751 (1976), Lampman, et al., J. Chem. Ecol., 13:959-975 (1987).
(§4) Attraction of Diabrotica species to volatile compounds was measured by the average number of beetles cought during a 24-h period on 1.0-liter cylindrical paper cartons (15.2 cm high, 27.9 cm circumference) which were evenly coated with clear insect adhesive, TangleTrap™ (Tanglefood Co., Grand Rapids, Mich.) The candidate attractants were applied by capillary micropiettes to cotton dental wicks (13 mm long by 6 mm diameter) that were previously impregnated with mineral oil to prolong volatilization. The chemicals were purchased from Aldrich Chemical Co., (Milwaukee, Wis.) and assayed by gas chromatography as >97% pure. Indole, a solid at ambient temperatures (m.p. 52-54° C.), was dissolved in glass-distilled acetone before dosing the cotton wicks. For dosage-acticity tests, the various components were mixed in equal quantities by weight and diluted to the appropriate dosage with acetone. Treated and untreated (control) wicks were attached to the top of the paper cartons with TangleTrap™ and the inverted traps were placed on 1-m-high posts between the sweet corn rows. Four replicates of each treatment and a control were conducted in a randomized complete block desgin. The sticky traps within a block (ca. 50-m row of corn) were 5-10 m apart (depending on the number of treatments in a particular test) and the blocks were 3 m apart. The traps were baited and placed in the field between 1000 and 1300 hours and beetle counts were taken after 24 h. The significance of treatments was determined by analysis of variance and the individual means were separated by Duncan's multiple range test (Statistical Package for Social Sciences (SPSS) (Nie, et al., SPSS: statistical package for the social sciences, 2nd ed. McGraw-Hill, N.Y. (1975)). Student's t test was used for comparisons of two means (Sokal, et al., Biometry, Freeman, San Francisco (1969). Significance levels were set at P=0.05 at all statistical analyses.
(§5) The initial field test in August of the first year evaluated the response of SCR and WCR adults of a mixture of veratrole (V), indole (I), phenylacetaldehyde (P), trans-anethole (A), and eugenol (E) (=VIPAE mixture), as well as to the individual components. Each component in the VIPAE mixture was present at a dosage of 20 mg per trap and was compared with the individual components at 100 mg per trap. The response of SCR and WCR adults to a range of VIPAE doses, 1-300 mg, was conducted on the following day. Fifty SCR adults were removed from each 100-mg VIPAE trap, and returned to the laboratory for sex determination. Additional analyses in August evaluated the reduction in trap catches produced by the sequential removal of the individual components from the VIPAE lure. After the primary components of the initial lure were determined, a modified multicomponent lure consisting of veratrole, indole, and phenylacetaldehyde (=VIP mixture) was compared with its individual components to determine whether the attraction of SCR adults was the result of interactive or additive factors. The attraction and synergistic response of SCR adults of the VIP mixture was verified by tests conducted in August of the following year. […]

[5] = tested on: western corn rootworm (WCR) adults; assay: as above; assay type: in vivo, Diabrotica virgifera virgifera; conditions: for Mean number of WCR per trap (±standard deviation): n = 4
Method: as §3, §4, §5

NCR = assay: Limit of response rating of squash blossom volatiles on sticky traps (Example 5); assay type: in vivo, Diabrotica barberi; conditions: 24 hour; four replicate traps; 0.01 mg to 200 mg
Method: (§6) Over 40 individual volatile chemicals have been isolated from Cucurbita maxima blossoms and circa 25 of these have been unequivocally identified (Andersen, J. F., J. Agric. Food Chem., 35:60-62 (1987): Andersen, J. F. and Metcalf, R. L., J. Chem. Ecol., 12:687-699 (1986)). The major odor components were evaluated as potential attractants for adult Diabrotica species using cylindrical sticky traps baited with dental cotton wicks (Metcalf, R. L., and Lampman, R. L., Paper submitted to J. Econ. Entomol., (1988)) containing from 0.01 mg to 200 mg of volatile compound.

SCR = assay: as above; assay type: in vivo, Diabrotica undecimpunctata howardi; conditions: 24 hour; four replicate traps; 0.01 mg to 200 mg
Method: as §6

WCR = assay: as above; assay type: in vivo, Diabrotica virgifera virgifera; conditions: 24 hour; four replicate traps; 0.01 mg to 200 mg
Method: as §6

D. barberi = assay: Sticky trap attraction in prairie habitat, Trelease Woods (Example 2); assay type: in vivo, Diabrotica barberi; conditions: August 14, 1987; 100 mg per trap; n = 4
Method: (§7) The candidate lures in all experiments were purchased commercially and exceeded 98% purity. The test chemicals were applied by capillary micropipettes to cotton dental wicks which were attached to the tops of 1.0 liter cylindrical paper cartons covered with TangleTrap™ (Tanglefoot Co., Grand Rapids, Mich.). The sticky trap techniques used were as described in Example 1. Cinnamyl alcohol and para-methoxycinnamaldehyde, which are solids, were dissolved in glass-distilled acetone prior to dosing the cotton wicks. […]. Control traps had untreated cotton wicks. Four replicates of treated and untreated traps were randomly positioned 10 meters apart on top of 1 m high posts along the border of a eight foot wide strip cut through the middle of a 4.05 ha relict prairie at Trelease Woods (ca. two miles northeast of Urbana, Ill.). The field consisted primarily of Andropogon gerardii Vitman (big bluestem) and a variety of composites. The tests were conducted in mid-August of two years and were timed to coincide with the presence of D. cristata and D. barberi adults in the flower heads of Canada thistle (Carduus arvensis Robson). In the second year, several new attractants of D. v. virgifera and D. barberi were tested in Trelease Woods and along the edge of a 0.8 ha field of hybrid corn located at the Pomology South Farms, Urbana, Ill. Attraction of Diabrotica species to the various lures was measured by the mean number of beetles caught after 24-h. On one date in late August of the first year, D. cristata and D. barberi were removed from the traps and sexed in the laboratory. The significance of treatments in all tests was determined by an analysis of variance and the individual means were separated by Duncan's multiple range test (Statistical Package for Social Science, Nie, et al., SPSS: statistical package for the social sciences, 2nd ed. McGraw-Hill, New York (1975). Data were logarithmically transformed for statistical analysis and the means and standard deviations are presented for the untransformed data.

D. cristata = assay: as above; assay type: in vivo, Diabrotica cristata; conditions: August 14, 1987; 100 mg per trap; n = 4
Method: as §7

D. v. virgifera = assay: as above; assay type: in vivo, Diabrotica virgifera virgifera; conditions: August 14, 1987; 100 mg per trap; n = 4
Method: as §7

D. u. howardi = assay: as above; assay type: in vivo, Diabrotica undecimpunctata howardi; conditions: August 14, 1987; 100 mg per trap; n = 4
Method: as §7

[6] = August 4, second year, each compound 20 mg per trap
[7] = August 7, second year, each compound 20 mg per trap
[8] = August first year, South Farms, 24 h, single compounds 100 mg per trap, mixture 20 mg of each component
[9] = August first year, single compounds 100 mg per trap, mixture 20 mg each component

CC(=O)OCC=Cc1ccccc1 [XIX, cinnamyl acetate]
Mean number of WCR per sticky trap after 24 hours [1]: 24.0 ± 1.07^b per sticky trap
Mean number of SCR per sticky trap after 24 hours [2]: 6.0 ± 1.5^a per sticky trap
Mean number of NCR per sticky trap after 24 hours [3]: 5.7 ± 2.9^b per sticky trap

O=C(O)C=Cc1ccccc1 [XX, cinnamic acid]
Mean number of WCR per sticky trap after 24 hours [1]: 12.7 ± 4.9^a per sticky trap
Mean number of SCR per sticky trap after 24 hours [2]: 1.7 ± 0.5^a per sticky trap
Mean number of NCR per sticky trap after 24 hours [3]: 1.7 ± 1.0^a per sticky trap

O=C(O)CCc1ccccc1 [XXII, dihydrocinnamic acid]
Mean number of WCR per sticky trap after 24 hours [1]: 12.0 ± 3.6^a per sticky trap
Mean number of SCR per sticky trap after 24 hours [2]: 33.7 ± 8.7^bc per sticky trap
Mean number of NCR per sticky trap after 24 hours [3]: 4.0 ± 1.4^b per sticky trap

O=CCc1ccccc1 [Phenylacetaldehyde]
relative percent activity (SCR) as compared with the highest mean value for the test date [4, 6]: 8%
Mean number of SCR per trap (±standard deviation) [4, 6]: 3.0 ± 1.2 per trap
relative percent activity (SCR) as compared with the highest mean value for the test date [4, 7]: 12%
Mean number of SCR per trap (±standard deviation) [4, 7]: 5.3 ± 3.2 per trap
Mean number of SCR per trap (±standard deviation) [4, 8]: 2.5 ± 1.9 per trap
relative percent activity of the mean SCR trap catch as compared with the highest mean value in the column [4, 9]: 12%
relative percent activity (WCR) as compared with the highest mean value for the test date [5, 6]: 35%
Mean number of WCR per trap (±standard deviation) [5, 6]: 17.8 ± 7.9 per trap
relative percent activity (WCR) as compared with the highest mean value for the test date [5, 7]: 42%
Mean number of WCR per trap (±standard deviation) [5, 7]: 13.3 ± 8.1 per trap
Mean number of WCR per trap (±standard deviation) [5, 8]: 1.8 ± 1.3 per trap
relative percent activity of the mean WCR trap catch as compared with the highest mean value in the column [5, 9]: 26%
Attractant Rating NCR (by limit of response) (NCR): 0 (200)
Attractant Rating SCR (by limit of response) (SCR): +2 (10-30)
Attractant Rating WCR (by limit of response) (WCR): 0 (200)

N#CCCc1ccccc1 [XXIII, phenyl propionitrile]
Mean number of WCR per sticky trap after 24 hours [1]: 12.0 ± 4.2^a per sticky trap
Mean number of SCR per sticky trap after 24 hours [2]: 23.7 ± 9.7^b per sticky trap
Mean number of NCR per sticky trap after 24 hours [3]: 0.3 ± 0.5^a per sticky trap

N#CC=Cc1ccccc1 [X, cinnamonitrile]
Mean number of WCR adults per sticky trap (±standard deviation) after 24 hours ([1]; August 4 second year): 32.7 ± 11.4^bc per sticky trap
Mean number of WCR per sticky trap after 24 hours [1]: 37.8 ± 7.8^cd per sticky trap
Mean number of WCR adults per sticky trap (±standard deviation) after 24 hours ([1]; August 5 first year): 1.5 ± 6.6^ab per sticky trap
Mean number of SCR adults per sticky trap (±standard deviation) after 24 hours ([2]; August 4 second year): 59.5 ± 49.0^c per sticky trap
Mean number of SCR per sticky trap after 24 hours [2]: 47.5 ± 15.4^cd per sticky trap
Mean number of SCR adults per sticky trap (±standard deviation) after 24 hours ([2]; August 5 first year): 156.0 ± 37.2^c per sticky trap
Mean number of NCR per sticky trap after 24 hours [3]: 0.3 ± 0.5^a per sticky trap

CC(=O)/C=C/C1C(C)=CCCC1(C)C (stereo not drawn) [α-ionone]
Mean number of D. barberi per day (±standard deviation) (D. barberi): 0.3 ± 0.5^a per day
Mean number of D. cristata per day (±standard deviation) (D. cristata): 2.8 ± 2.1^a per day
Mean number of D. v. virgifera per day (±standard deviation) (D. v. virgifera): 0.0^a per day
Mean number of D. u. howardi per day (±standard deviation) (D. u. howardi): 0.0^a per day
Attractant Rating NCR (by limit of response) (NCR): 0 (200)
Attractant Rating SCR (by limit of response) (SCR): 0 (200)
Attractant Rating WCR (by limit of response) (WCR): 0 (200)

COC(=O)C=Cc1ccccc1 [XV, cinnamic acid methyl ester]
Mean number of WCR per sticky trap after 24 hours [1]: 9.5 ± 4.5^a per sticky trap
Mean number of WCR adults per sticky trap (±standard deviation) after 24 hours ([1]; September 11): 1.7 ± 1.7^a per sticky trap
Mean number of SCR per sticky trap after 24 hours [2]: 2.0 ± 0.8^a per sticky trap
Mean number of SCR adults per sticky trap (±standard deviation) after 24 hours ([2]; September 11): 3.2 ± 1.7^ab per sticky trap
Mean number of NCR per sticky trap after 24 hours [3]: 0.5 ± 0.6^a per sticky trap
